Source: paper PMC10979003, “Development and crystal structures of a potent second-generation dual degrader of BCL-2 and BCL-xL” (Nature Communications, 2024)

How the values were obtained:
[1] = target: T1, VCB/PROTAC/BCL-2 ternary complex (Homo sapiens, UniProt P10415+P40337); test: AlphaLISA ternary complex assay VCB/PROTAC/BCL-2; assay type: binding; details: cell-free AlphaLISA
T1 construct: BCL-xL (aa 2-212) and BCL-2 (aa 1-207) transformed cells were grown in LB broth; GST (on the VCB complex); made in house; host or cells: E. coli BL21 (DE3) codon plus (stated for the BCL-2 construct)
T1 sequence (Q15370 whole entry, the tested form may be a part): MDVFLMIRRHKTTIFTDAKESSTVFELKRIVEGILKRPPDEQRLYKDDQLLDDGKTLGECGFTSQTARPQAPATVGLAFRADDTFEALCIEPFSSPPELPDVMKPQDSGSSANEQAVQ
T1 sequence (Q15369 17-112, further chain): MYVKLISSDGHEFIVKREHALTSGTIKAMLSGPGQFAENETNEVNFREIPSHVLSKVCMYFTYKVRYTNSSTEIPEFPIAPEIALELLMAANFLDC
T1 sequence (P40337 54-213): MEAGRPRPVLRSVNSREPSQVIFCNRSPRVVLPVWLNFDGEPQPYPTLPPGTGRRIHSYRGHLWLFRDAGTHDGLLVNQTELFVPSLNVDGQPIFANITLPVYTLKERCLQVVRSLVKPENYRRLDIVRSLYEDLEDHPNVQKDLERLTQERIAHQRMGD
T1 sequence (P10415 1-207): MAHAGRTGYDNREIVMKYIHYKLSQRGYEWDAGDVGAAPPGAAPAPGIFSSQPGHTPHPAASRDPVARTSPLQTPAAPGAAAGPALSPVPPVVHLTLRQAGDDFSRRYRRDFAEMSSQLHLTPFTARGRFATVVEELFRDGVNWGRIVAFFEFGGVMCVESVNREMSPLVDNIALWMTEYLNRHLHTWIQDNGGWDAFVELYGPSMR
Method: Assays were performed at room temperature. All reagents were diluted in assay buffer of 25 mM HEPES, pH 7.5, 150 mM NaCl, 0.1% BSA, and 0.005% tween 20. To a 96-well PCR plate (VWR, Cat. No. 82006-636) were added 10 μL self-made 6×His tagged BCL-xL (100 nM) or BCL-2 (150 nM), 10 μL series diluted compounds solution (4× dilution) and 10 μL of self-made GST-VCB (100 nM). After incubating at room temperature for 15 min, 5 µL of alpha glutathione-donor beads (160 μg/mL, PerkinElmer, Cat. No. 6765300) and 5 µL of anti-6×His acceptor beads (160 μg/mL, PerkinElmer, Cat. No. AL128M) to each well and incubated for additional 45 min in the dark before being transferred to two adjacent wells (17 µL each) of 384-well white OptiPlate (PerkinElmer, Cat. No. 6008280). The luminescence signal was detected on a Biotek’s Synergy Neo2 multimode plate reader installed with an AphaScreen filter cube. Intensity values were plotted in Graphpad Prism (9.2.0) with PROTAC concentration values represented on a log10 scale.

HiBiT-BCL-xL/HaloTag-VHL = target: T2, HiBiT-BCL-xL/HaloTag-VHL (Homo sapiens, UniProt P40337+Q07817); test: NanoBRET ternary complex formation assay in 293T cells, HiBiT-BCL-xL and HaloTag-VHL; assay type: cell-based; details: 4 h, MG132 pretreatment
T2 construct: full-length BCL-xL and BCL-2 were expressed in cells for the nanoBRET assay; host or cells: 293T
T2 sequence (Q07817 whole entry): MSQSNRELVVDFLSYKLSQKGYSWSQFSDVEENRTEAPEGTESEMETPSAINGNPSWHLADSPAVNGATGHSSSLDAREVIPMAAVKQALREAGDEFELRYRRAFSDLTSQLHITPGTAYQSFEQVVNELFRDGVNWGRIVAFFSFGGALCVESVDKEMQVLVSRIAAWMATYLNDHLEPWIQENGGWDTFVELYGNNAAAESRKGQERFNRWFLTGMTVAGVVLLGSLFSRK
T2 sequence (Q15369 whole entry, further chain): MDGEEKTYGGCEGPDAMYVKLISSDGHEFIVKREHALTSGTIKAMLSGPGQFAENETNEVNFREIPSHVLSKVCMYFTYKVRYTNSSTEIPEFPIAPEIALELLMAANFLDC
T2 sequence (Q15370 whole entry, further chain): as the sequence (Q15370 whole entry, the tested form may be a part) above
T2 sequence (P40337 whole entry): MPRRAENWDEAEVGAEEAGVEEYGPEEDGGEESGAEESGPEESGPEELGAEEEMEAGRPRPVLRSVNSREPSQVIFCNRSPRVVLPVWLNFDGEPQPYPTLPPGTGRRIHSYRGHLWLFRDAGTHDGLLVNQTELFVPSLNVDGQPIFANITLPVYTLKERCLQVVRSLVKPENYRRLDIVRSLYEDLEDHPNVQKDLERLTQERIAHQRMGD
Method: (§1) Plasmids HaloTag-VHL (Cat. No. CS1679C155) and CMV HiBiT (Cat. No. CS1956B03) were purchased from Promega. HiBiT-BCL-xL and HiBiT-BCL-2 were constructed previously. 293T cells (8 × 10^5 cells/well in a 6-well plate) were transfected with Lipofectamine (Life Technologies) and 1 μg HaloTag-VHL, 20 ng HiBiT-BCL-xL and 20 ng LgBiT or 1 μg HaloTag-VHL, 20 ng HiBiT-BCL-2 and 20 ng LgBiT. After 48 h, 2 × 10^4 transfected cells were seeded into each well of white 96-well tissue culture plates in Gibco™ Opti-MEM™ I Reduced Serum Medium, No Phenol Red (Cat. No. 11-058-021, Fisher) containing 4% FBS with or without HaloTag NanoBRET 618 Ligand (Cat. No. PRN1662, Promega) and incubated overnight at 37 °C, 5% CO2. […] After treatment, NanoBRET Nano-Glo Substrate (cat. no. N1662, Promega) was added into the medium, and the contents were mixed by shaking the plate for 30 s before measuring donor and acceptor signals on Biotek plate reader. Dual-filtered luminescence was collected with a 450/50 nm bandpass filter (donor, NanoBiT-BCL-XL protein or NanoBiT-BCL-2 protein) and a 610-nm longpass filter (acceptor, HaloTag NanoBRET ligand) using an integration time of 0.5 s. mBRET ratios were calculated following the NanoBRET™ Nano-Glo® Detection System (Cat. No. N1662, Promega).

HiBiT-BCL-2/HaloTag-VHL = target: T3, HiBiT-BCL-2/HaloTag-VHL (Homo sapiens, UniProt P10415+P40337); test: NanoBRET ternary complex formation assay in 293T cells, HiBiT-BCL-2 and HaloTag-VHL; assay type: cell-based; details: 4 h, MG132 pretreatment
T3 construct: full-length BCL-xL and BCL-2 were expressed in cells for the nanoBRET assay; host or cells: 293T
T3 sequence (P10415 whole entry): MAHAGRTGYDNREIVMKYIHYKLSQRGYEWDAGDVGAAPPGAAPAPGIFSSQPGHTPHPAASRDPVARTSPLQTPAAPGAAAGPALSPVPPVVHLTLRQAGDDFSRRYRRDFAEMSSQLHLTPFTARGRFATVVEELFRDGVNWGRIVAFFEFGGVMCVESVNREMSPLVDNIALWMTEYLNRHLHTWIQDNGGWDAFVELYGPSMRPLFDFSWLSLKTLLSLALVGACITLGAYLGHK
T3 sequence (P40337 whole entry): as the sequence (P40337 whole entry) above
T3 sequence (Q15370 whole entry, further chain): as the sequence (Q15370 whole entry, the tested form may be a part) above
T3 sequence (Q15369 whole entry, further chain): as the sequence (Q15369 whole entry, further chain) above
Method: as §1

BCL-2 E114A = target: T4, BCL-2 E114A (Homo sapiens, UniProt P10415+P40337, E114A); test: Polyubiquitin chain formation assay, BCL-2 E114A; assay type: biochemical; details: 10 μM WH244, 1 h, Fig. 5d
T4 construct: BCL-xL (aa 2-212) and BCL-2 (aa 1-207) transformed cells were grown in LB broth; VHL (aa 54-213) and ElonginBC were co-transformed (VCB); 6xHis (TEV-cleavable) (N, cleaved yes); made in house; host or cells: E. coli BL21 (DE3) codon plus (BCL-2, VCB); Trichoplusia ni High-Five insect cells (Cullin2-Rbx1)
Method: WT BCL-xL/BCL-2 (5 μM) were ubiquitinated in the presence of E1 SpUba1 (0.1 μM), E2, UbcH5c (1 μM) and Cdc34 (1 μM), ubiquitin (75 μM), VHL-Elongin C-Elongin B complex (0.35 μM), neddylated Cullin2-Rbx1 complex (0.35 μM) and 753b or WH244 (10 μM) at 37 °C in a buffer of 50 mM HEPES, pH 7.5, 10 mM MgCl2, 100 mM NaCl, 2 mM ATP, and 0.5 mM DTT. The reaction mixture was incubated for indicated time points (Supplementary Fig. 4a, b, d, e, g, h) and was terminated by the addition of 1× reducing SDS-PAGE loading buffer. The polyUb chain formation was assessed using immunoblotting as described earlier. For polyUb chain formation on mutant proteins used in this study, the above protocol was used with a fixed time-point of 1 h.

human platelets = test: Potency against human platelets in vitro; assay type: cell-based

Cc1ncsc1-c1ccc([C@H](C)NC(=O)[C@@H]2C[C@@H](O)CN2C(=O)[C@@H](NC(=O)CN2CCN(CC(=O)N3CCN(C[C@]4(C)CCC(c5ccc(Cl)cc5)=C(CN5CCN(c6ccc(C(=O)NS(=O)(=O)c7ccc(N[C@H](CCN8C[C@@H]9C[C@H]8CO9)CSc8ccccc8)c(S(=O)(=O)C(F)(F)F)c7)cc6)CC5)C4)CC3)CC2)C(C)(C)C)cc1 [WH244]
Ternary complex formation with BCL-2 (comparison with 753b) [1]: tighter complex
Cellular ternary complex formation with BCL-xL (comparison) (HiBiT-BCL-xL/HaloTag-VHL): significantly lower compound concentration than 753b
Cellular ternary complex formation with BCL-2 (comparison) (HiBiT-BCL-2/HaloTag-VHL): modestly better than 753b
PolyUb chain formation retained by E114A, share of the WT activity (BCL-2 E114A): 10-12%
Increase in therapeutic index compared to ABT263 (human platelets): more than 100 fold
